Reference: article PMC10046961, “High-Throughput Screening Assay for Detecting Drug-Induced Changes in Synchronized Neuronal Oscillations and Potential Seizure Risk Based on Ca^2+ Fluorescence Measurements in Human Induced Pluripotent Stem Cell (hiPSC)-Derived Neuronal 2D and 3D Cultures” (Cells, 2023)
Read-outs that look alike come from different tables or passages of the source. Marks after values point to notes of the source that are not given here.

Assays:
[1] = tested on: hiPSC-derived neurons co-cultured with human primary astrocytes in 2D; assay: Ca2+ transient oscillation assay (FDSS), 2D co-culture; type: cell-based; settings: for activation at 3.7 µM / activation at 11.11 µM / activation at 33.33 µM / activation at 100 µM / activation at 0.11 µM / activation at 0.33 µM / activation at 1 µM / activation at 3 µM / activation at 300 µM: Homo sapiens, 1 h, 60 min
Summary of the method: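 Cultures were 10,000 CW50065 hiPSC excitatory neurons plus 2500 primary human astrocytes per well. Recordings used Cal-520 dye in HBSS/HEPES/glucose at 37 °C, with a 470/540 nm read at 2 Hz. Oscillations were stabilized with 0.04% DMSO, read for 20 min, then read again 60 min after compound addition (final DMSO 0.1%).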

[2] = tested on: hiPSC-derived neurons co-cultured with human primary astrocytes in 3D; assay: Ca2+ transient oscillation assay (FDSS), 3D spheroids; type: cell-based; settings: 60 min
Summary of the method: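 Fura-2 fluorescence was read twice for 20 min each: a baseline 10 min after 0.04% DMSO, and again 60 min after compound addition at nominal final concentration. The 3D co-cultures (1:1 hiPSC neurons from a donor and human astrocytes, 8000 each) matured 5 weeks in BrainPhys medium after a 1-week differentiation.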

[3] = ref PharmaPendium, cited from earlier work
[4] = read-out: Area under the curve - 2D Mean
[5] = read-out: Peak amplitude - 2D Mean
[6] = read-out: Peak-to-peak interval - 2D Mean
[7] = Table 1, peak plasma concentration in men, free therapeutic Cmax
[8] = Table 2, highest plasma concentration in humans after the therapeutic dose

## NC(=O)N1c2ccccc2C=Cc2ccccc21 [Carbamazepine]
[1]; [4]
  activation at 3.7 µM: 31.5%
  activation at 11.11 µM: 62%
  activation at 33.33 µM: -39.7%
  activation at 100 µM: -100%
[1]; read-out: Peak Number—2D Mean
  activation at 3.7 µM: -15.3%
  activation at 11.11 µM: -17%
  activation at 33.33 µM: -76.8%
  activation at 100 µM: -100%
[1]; [5]
  activation at 3.7 µM: 16.5%
  activation at 11.11 µM: 8.5%
  activation at 33.33 µM: -52%
  activation at 100 µM: -100%
[1]; read-out: Peak width - 2D Mean
  activation at 3.7 µM: 19%
  activation at 11.11 µM: 66.5%
  activation at 33.33 µM: -36.7%
  activation at 100 µM: -100%
[1]; [6]
  activation at 3.7 µM: 0.8%
  activation at 11.11 µM: 45.8%
  activation at 33.33 µM: 45%
  activation at 100 µM: -100%
[2]; 3.7 µM
  Area under the curve - 3D Mean: 122.1 % change from baseline
  Peak Number—3D Mean: 11.4 % change from baseline
  Peak amplitude - 3D Mean: 114.1 % change from baseline
  Peak width - 3D Mean: 2.9 % change from baseline
  Peak-to-peak interval - 3D Mean: −4.9 % change from baseline
[2]; 11.11 µM
  Area under the curve - 3D Mean: 121.7 % change from baseline
  Peak Number—3D Mean: 3.9 % change from baseline
  Peak amplitude - 3D Mean: 114.1 % change from baseline
  Peak width - 3D Mean: 2.8 % change from baseline
  Peak-to-peak interval - 3D Mean: 9.5 % change from baseline
[2]; 33.33 µM
  Area under the curve - 3D Mean: 107.4 % change from baseline
  Peak Number—3D Mean: −19.3 % change from baseline
  Peak amplitude - 3D Mean: 93.5 % change from baseline
  Peak width - 3D Mean: 5.1 % change from baseline
  Peak-to-peak interval - 3D Mean: 33.5 % change from baseline
[2]; 100 µM
  Area under the curve - 3D Mean: 173.0 % change from baseline
  Peak Number—3D Mean: −21.5 % change from baseline
  Peak amplitude - 3D Mean: 85.2 % change from baseline
  Peak width - 3D Mean: 43.8 % change from baseline
  Peak-to-peak interval - 3D Mean: 25.1 % change from baseline
[3]; [7]
  Free Cmax: 10 µM
[3]; [8]
  Free Cmax: 10 µM

## CC1(C)S[C@@H]2[C@H](NC(=O)[C@H](N)c3ccc(O)cc3)C(=O)N2[C@H]1C(=O)O [Amoxicillin]
[1]; [4]
  activation at 0.11 µM: 38.3%
  activation at 0.33 µM: 23.7%
  activation at 1 µM: 45.8%
  activation at 3 µM: 43%
[1]; read-out: Peak Number—2D Mean
  activation at 0.11 µM: -10.5%
  activation at 0.33 µM: 8.3%
  activation at 1 µM: 27.2%
  activation at 3 µM: 16.2%
[1]; [5]
  activation at 0.11 µM: 19.3%
  activation at 0.33 µM: 5%
  activation at 1 µM: 8.3%
  activation at 3 µM: 7.5%
[1]; read-out: Peak width - 2D Mean
  activation at 0.11 µM: 22.3%
  activation at 0.33 µM: 25.7%
  activation at 1 µM: 48%
  activation at 3 µM: 47.7%
[1]; [6]
  activation at 0.11 µM: 27.3%
  activation at 0.33 µM: 9.3%
  activation at 1 µM: -16%
  activation at 3 µM: -7.8%
[2]; 0.11 µM
  Area under the curve - 3D Mean: 147.7 % change from baseline
  Peak Number—3D Mean: −8.0 % change from baseline
  Peak amplitude - 3D Mean: 136.9 % change from baseline
  Peak width - 3D Mean: 4.7 % change from baseline
  Peak-to-peak interval - 3D Mean: 12.1 % change from baseline
[2]; 0.33 µM
  Area under the curve - 3D Mean: 145.7 % change from baseline
  Peak Number—3D Mean: 1.4 % change from baseline
  Peak amplitude - 3D Mean: 132.0 % change from baseline
  Peak width - 3D Mean: 5.5 % change from baseline
  Peak-to-peak interval - 3D Mean: 9.0 % change from baseline
[2]; 1 µM
  Area under the curve - 3D Mean: 122.0 % change from baseline
  Peak Number—3D Mean: 9.3 % change from baseline
  Peak amplitude - 3D Mean: 130.1 % change from baseline
  Peak width - 3D Mean: −4.5 % change from baseline
  Peak-to-peak interval - 3D Mean: −5.5 % change from baseline
[2]; 3 µM
  Area under the curve - 3D Mean: 125.7 % change from baseline
  Peak Number—3D Mean: 18.3 % change from baseline
  Peak amplitude - 3D Mean: 123.5 % change from baseline
  Peak width - 3D Mean: 1.2 % change from baseline
  Peak-to-peak interval - 3D Mean: −1.2 % change from baseline
[3]; [7]
  Free Cmax: 0.003 to 32 µM

## Cn1c(=O)c2[nH]cnc2n(C)c1=O [Theophylline]
[1]; 2D format
  effect on peak number / Ca2+ neuronal oscillations, in words: significantly increased peak number
[1]; [4]
  activation at 11.11 µM: 32.3%
  activation at 33.33 µM: 41.7%
  activation at 100 µM: 29.7%
  activation at 300 µM: 72.8%
[1]; read-out: Peak Number—2D Mean
  activation at 11.11 µM: -5.7%
  activation at 33.33 µM: 24.7%
  activation at 100 µM: 39.3%
  activation at 300 µM: 118%
[1]; [5]
  activation at 11.11 µM: 12.7%
  activation at 33.33 µM: 15.3%
  activation at 100 µM: 10%
  activation at 300 µM: 6%
[1]; read-out: Peak width - 2D Mean
  activation at 11.11 µM: 22.8%
  activation at 33.33 µM: 31.2%
  activation at 100 µM: 24.3%
  activation at 300 µM: 113%
[1]; [6]
  activation at 11.11 µM: 24.3%
  activation at 33.33 µM: -5.2%
  activation at 100 µM: -26.3%
  activation at 300 µM: -46.8%
[2]; 11.11 µM
  Area under the curve - 3D Mean: 156.1 % change from baseline
  Peak Number—3D Mean: 2.0 % change from baseline
  Peak amplitude - 3D Mean: 121.2 % change from baseline
  Peak width - 3D Mean: 11.1 % change from baseline
  Peak-to-peak interval - 3D Mean: −4.0 % change from baseline
[2]; 33.33 µM
  Area under the curve - 3D Mean: 171.1 % change from baseline
  Peak Number—3D Mean: 53.5 * % change from baseline
  Peak amplitude - 3D Mean: 142.1 % change from baseline
  Peak width - 3D Mean: 12.2 % change from baseline
  Peak-to-peak interval - 3D Mean: −21.2 % change from baseline
[2]; 100 µM
  Area under the curve - 3D Mean: 148.8 % change from baseline
  Peak Number—3D Mean: 78.1 * % change from baseline
  Peak amplitude - 3D Mean: 99.6 % change from baseline
  Peak width - 3D Mean: 21.3 % change from baseline
  Peak-to-peak interval - 3D Mean: −37.1 % change from baseline
[2]; 300 µM
  Area under the curve - 3D Mean: 134.2 % change from baseline
  Peak Number—3D Mean: 114.2 * % change from baseline
  Peak amplitude - 3D Mean: 89.4 % change from baseline
  Peak width - 3D Mean: 29.3 % change from baseline
  Peak-to-peak interval - 3D Mean: −45.7 % change from baseline
[3]; [7]
  Free Cmax: 8 to 15 µM
[3]; [8]
  Free Cmax: 8 to 15 µM
